# Data reported in patent US7109338B2, “1,2-disubstituted 1,4-dihydro-4-oxoquinoline compounds” (priority 1999, dated 2006).
# Assays:
# HeLa (Ohio strain)cells = assay: Cytotoxicity (MTT, without virus), HeLa(Ohio); details: HeLa(Ohio), no virus, incubated for 4 days
# HRV21 (47) = assay: Anti-rhinovirus spectrum (MTT), HRV21; type: cell-based, human rhinovirus; set-up: Anti-Rhinovirus activity, HRV21: unit not given here
# [1] = tested on: human rhinovirus type 1B (HRV 1B, B632); assay: Anti-rhinovirus activity (MTT), HRV1B; type: cell-based; set-up: Anti-Rhinovirus activity, HRV1B: unit not given here; details: for IC50 HRV1B: HeLa (Ohio strain) cells, MTT method, 33° C.
# HRV33 (1200) = assay: Anti-rhinovirus spectrum (MTT), HRV33; type: cell-based, human rhinovirus; set-up: Anti-Rhinovirus activity, HRV33: unit not given here
# HRV1A (E28) = assay: Anti-rhinovirus activity (MTT), HRV1A; type: cell-based, human rhinovirus; set-up: Anti-Rhinovirus activity, HRV1A: unit not given here
# HRV3(FEB) = assay: Anti-rhinovirus spectrum (MTT), HRV3; type: cell-based, human rhinovirus; set-up: Anti-Rhinovirus activity, HRV3: unit not given here
# HRV10 (204-CV14) = assay: Anti-rhinovirus spectrum (MTT), HRV10; type: cell-based, human rhinovirus; set-up: Anti-Rhinovirus activity, HRV10: unit not given here
# HRV 2 (HGP) = assay: Anti-rhinovirus activity (MTT), HRV2; type: cell-based, human rhinovirus; set-up: Anti-Rhinovirus activity, HRV2: unit not given here; details: for IC50 HRV2: HeLa (Ohio strain) cells, MTT method, 33° C.
# HRV5 = assay: Anti-rhinovirus spectrum (MTT), HRV5; type: cell-based, human rhinovirus; set-up: Anti-Rhinovirus activity, HRV5: unit not given here
# HRV 89 (41617-Gallo) = assay: Anti-rhinovirus activity (MTT), HRV89; type: cell-based, human rhinovirus; set-up: Anti-Rhinovirus activity, HRV89: unit not given here; details: for IC50 HRV89: HeLa (Ohio strain) cells, MTT method, 33° C.
# HRV36 (342H) = assay: Anti-rhinovirus spectrum (MTT), HRV36; type: cell-based, human rhinovirus; set-up: Anti-Rhinovirus activity, HRV36: unit not given here
# HRV50(A2#58) = assay: Anti-rhinovirus spectrum (MTT), HRV50; type: cell-based, human rhinovirus; set-up: Anti-Rhinovirus activity, HRV50: unit not given here
# HRV31 (41F) = assay: Anti-rhinovirus spectrum (MTT), HRV31; type: cell-based, human rhinovirus; set-up: Anti-Rhinovirus activity, HRV31: unit not given here
# HRV13 (353) = assay: Anti-rhinovirus spectrum (MTT), HRV13; type: cell-based, human rhinovirus; set-up: Anti-Rhinovirus activity, HRV13: unit not given here
# HRV32 (363) = assay: Anti-rhinovirus spectrum (MTT), HRV32; type: cell-based, human rhinovirus; set-up: Anti-Rhinovirus activity, HRV32: unit not given here
# HRV61 (6669-CV39) = assay: Anti-rhinovirus spectrum (MTT), HRV61; type: cell-based, human rhinovirus; set-up: Anti-Rhinovirus activity, HRV61: unit not given here
# HRV8(MRH) = assay: Anti-rhinovirus spectrum (MTT), HRV8; type: cell-based, human rhinovirus; set-up: Anti-Rhinovirus activity, HRV8: unit not given here
# HRV39 (209) = assay: Anti-rhinovirus spectrum (MTT), HRV39; type: cell-based, human rhinovirus; set-up: Anti-Rhinovirus activity, HRV39: unit not given here
# HRV41 (56110) = assay: Anti-rhinovirus spectrum (MTT), HRV41; type: cell-based, human rhinovirus; set-up: Anti-Rhinovirus activity, HRV41: unit not given here
# HRV29 (5582) = assay: Anti-rhinovirus spectrum (MTT), HRV29; type: cell-based, human rhinovirus; set-up: Anti-Rhinovirus activity, HRV29: unit not given here
# HRV14 (1059) = assay: Anti-rhinovirus activity (MTT), HRV14; type: cell-based, human rhinovirus; set-up: Anti-Rhinovirus activity, HRV14: unit not given here
# HRV16 (11757) = assay: Anti-rhinovirus spectrum (MTT), HRV16; type: cell-based, human rhinovirus; set-up: Anti-Rhinovirus activity, HRV16: unit not given here
# [2] = tested on: clinical isolate (89229T); assay: microbe, parasite or virus in culture; type: cell-based, human rhinovirus; set-up: Anti-Rhinovirus activity, Clinical isolated strain: unit not given here
# [3] = tested on: coxsackievirus type B4 (CB4,JVB); assay: In vitro anti-picornavirus activity (MTT), CB4; type: cell-based; details: HeLa cells, MTT method, 37° C.
# HeLa-S3 cells = assay: Cytotoxicity (MTT, without virus), HeLa-S3; details: HeLa-S3, no virus, incubated for 4 days
# [4] = tested on: coxsackievirus type A7 (CA7); assay: In vitro anti-picornavirus activity (MTT), CA7; type: cell-based; details: HeLa-S3 cells, MTT method, 37° C.
# [5] = tested on: echovirus type 11 (Echo 11, Gregory); assay: In vitro anti-picornavirus activity (MTT), Echo 11; type: cell-based; details: HeLa-S3 cells, MTT method, 37° C.
# HeLa cells = assay: Cytotoxicity (MTT, without virus), HeLa; details: HeLa, no virus, incubated for 4 days
# [6] = tested on: Poliovirus type 1 (Polio 1, Sabin); assay: microbe, parasite or virus in culture; type: cell-based
# [7] = HeLa (Ohio strain) cells, MTT method, 33° C.
smiles,measurement,setting,value
Cc1c(-c2ccccc2)n(-c2cccc(F)c2)c2ccc(C(C)C)cc2c1=O [Compound A322],Cytotoxicity CC50 HeLa(Ohio),HeLa (Ohio strain)cells,>1 µg/mL
same,"Anti-Rhinovirus activity, HRV21","HRV21 (47); Table VII, rhinovirus serotype HRV21",0.048
same,IC50 HRV1B,[1],0.18 µg/mL
same,"Anti-Rhinovirus activity, HRV1B","[1]; Table VII, rhinovirus serotype HRV1B",0.18
same,"Anti-Rhinovirus activity, HRV33","HRV33 (1200); Table VII, rhinovirus serotype HRV33",0.17
same,"Anti-Rhinovirus activity, HRV1A","HRV1A (E28); Table VII, rhinovirus serotype HRV1A, same method as above",>1.0
same,"Anti-Rhinovirus activity, HRV3","HRV3(FEB); Table VII, rhinovirus serotype HRV3",>1.0
same,"Anti-Rhinovirus activity, HRV10","HRV10 (204-CV14); Table VII, rhinovirus serotype HRV10",0.013
same,IC50 HRV2,HRV 2 (HGP),0.030 µg/mL
same,"Anti-Rhinovirus activity, HRV2","HRV 2 (HGP); Table VII, rhinovirus serotype HRV2",0.030
same,"Anti-Rhinovirus activity, HRV5","HRV5; Table VII, rhinovirus serotype HRV5",>1.0
same,IC50 HRV89,HRV 89 (41617-Gallo),0.034 µg/mL
same,"Anti-Rhinovirus activity, HRV89","HRV 89 (41617-Gallo); Table VII, rhinovirus serotype HRV89",0.034
same,"Anti-Rhinovirus activity, HRV36","HRV36 (342H); Table VII, rhinovirus serotype HRV36",0.085
same,"Anti-Rhinovirus activity, HRV50","HRV50(A2#58); Table VII, rhinovirus serotype HRV50",0.023
same,"Anti-Rhinovirus activity, HRV31","HRV31 (41F); Table VII, rhinovirus serotype HRV31",0.045
same,"Anti-Rhinovirus activity, HRV13","HRV13 (353); Table VII, rhinovirus serotype HRV13",0.029
same,"Anti-Rhinovirus activity, HRV32","HRV32 (363); Table VII, rhinovirus serotype HRV32",0.020
same,"Anti-Rhinovirus activity, HRV61","HRV61 (6669-CV39); Table VII, rhinovirus serotype HRV61",0.29
same,"Anti-Rhinovirus activity, HRV8","HRV8(MRH); Table VII, rhinovirus serotype HRV8",>1.0
same,"Anti-Rhinovirus activity, HRV39","HRV39 (209); Table VII, rhinovirus serotype HRV39",0.012
same,"Anti-Rhinovirus activity, HRV41","HRV41 (56110); Table VII, rhinovirus serotype HRV41",0.034
same,"Anti-Rhinovirus activity, HRV29","HRV29 (5582); Table VII, rhinovirus serotype HRV29",0.080
same,"Anti-Rhinovirus activity, HRV14","HRV14 (1059); Table VII, rhinovirus serotype HRV14",>1.0
same,"Anti-Rhinovirus activity, HRV16","HRV16 (11757); Table VII, rhinovirus serotype HRV16",0.030
same,Anti-rhinovirus activity Clinically isolated strain,"[2]; Table VII, clinical isolate (89229T)",0.017
CCn1c2c(c(=O)c3cc(C(C)C)ccc31)Cc1cc(OC)c(C)cc1-2 [Compound B20],Cytotoxicity CC50 HeLa(Ohio),HeLa (Ohio strain)cells,>2.5 µg/mL
same,IC50 CB4,[3],0.60 µg/mL
same,"Anti-Rhinovirus activity, HRV21",HRV21 (47); HRV21,0.14
same,"Anti-Rhinovirus activity, HRV1B",[1]; HRV1B,0.23
same,IC50 HRV1B,[1],0.23 µg/mL
same,"Anti-Rhinovirus activity, HRV33",HRV33 (1200); HRV33,0.097
same,"Anti-Rhinovirus activity, HRV1A",HRV1A (E28); HRV1A,>2.5
same,IC50 HRV 1A,HRV1A (E28); [7],>2.5 µg/mL
same,Cytotoxicity CC50 HeLa-S3,HeLa-S3 cells,>2.5 µg/mL
same,IC50 CA7,[4],1.4 µg/mL
same,"Anti-Rhinovirus activity, HRV3",HRV3(FEB); HRV3,0.50
same,IC50 Echo 11,[5],0.28 µg/mL
same,"Anti-Rhinovirus activity, HRV10",HRV10 (204-CV14); HRV10,0.42
same,"Anti-Rhinovirus activity, HRV2",HRV 2 (HGP); HRV2,0.19
same,IC50 HRV2,HRV 2 (HGP),0.19 µg/mL
same,"Anti-Rhinovirus activity, HRV5",HRV5; HRV5,0.23
same,"Anti-Rhinovirus activity, HRV89",HRV 89 (41617-Gallo); HRV89,0.18
same,IC50 HRV89,HRV 89 (41617-Gallo),0.18 µg/mL
same,Cytotoxicity CC50 HeLa,HeLa cells,>2.5 µg/mL
same,"Anti-Rhinovirus activity, HRV36",HRV36 (342H); HRV36,0.20
same,"Anti-Rhinovirus activity, HRV50",HRV50(A2#58); HRV50,0.18
same,"Anti-Rhinovirus activity, HRV31",HRV31 (41F); HRV31,0.18
same,"Anti-Rhinovirus activity, HRV13",HRV13 (353); HRV13,0.13
same,"Anti-Rhinovirus activity, HRV32",HRV32 (363); HRV32,0.29
same,"Anti-Rhinovirus activity, HRV61",HRV61 (6669-CV39); HRV61,0.31
same,"Anti-Rhinovirus activity, HRV8",HRV8(MRH); HRV8,0.29
same,"Anti-Rhinovirus activity, HRV39",HRV39 (209); HRV39,0.35
same,"Anti-Rhinovirus activity, HRV41",HRV41 (56110); HRV41,0.12
same,"Anti-Rhinovirus activity, HRV29",HRV29 (5582); HRV29,0.44
same,"Anti-Rhinovirus activity, HRV14",HRV14 (1059); HRV14,0.51
same,IC50 HRV 14,HRV14 (1059); [7],0.51 µg/mL
same,IC50 Polio 1,[6],0.40 µg/mL
same,"Anti-Rhinovirus activity, HRV16",HRV16 (11757); HRV16,0.44
same,"Anti-Rhinovirus activity, Clinical isolated strain",[2]; Clinical isolated strain,0.49
